# Experimental data as given in PMC5944968, “A multi-chamber microfluidic intestinal barrier model using Caco-2 cells for drug transport studies” (PLoS ONE, 2018).
# Read-outs that look alike come from different tables or passages of the source.
# Assays:
# [1] = test system: Caco-2 monolayers; assay: TEER of Caco-2 monolayers in microfluidic device after permeation enhancer; assay type: cell-based, Human
# Experimental: TEER measurements (Ω) of the Caco-2 cells cultured in the microfluidic device were obtained by coupling the connecting wires of the electrodes to a multimeter (Keithley, USA) using alligator clips. Each chamber contained two sets of top electrodes and two sets of bottom electrodes. Each time the TEER values were recorded, only one top electrode and one bottom electrode are connected to the multimeter. Four different configurations of TEER values were recorded, averaged to calculate the final TEER values measured across the microchamber.
# The final TEER values (Ω cm^2) were determined by subtracting the baseline measurement in the absence of cells (Rbaseline) from the read out (R1) and multiplying with the area of cell culture (Ao, 1.12 cm^2 for Transwell and 0.1 cm^2 for the microfluidic device) as shown in Eq 1.
# (§1) Buffer^+ was prepared by mixing Hank’s Buffered Saline solution (HBSS; Gibco, Denmark), 0.1% (wt/vol) OVA (ovalbumin; from chicken egg white, Sigma, Denmark) and 10 mM HEPES (HEPES; Sigma, Denmark) at pH 7.4.
# To validate the accuracy and dynamic span of TEER values acquired from the electrodes on the microfluidic chip, a permeation enhancer, tetradecyl-β-D-maltoside (TDM), was introduced to the Caco-2 monolayers for two hours. The concentration of TDM used in the earlier reported studies is expected to cause a transient disruption of the Caco-2 monolayer integrity, while causing minimal cell death, which is reversible after 24 hours in fresh cell culture medium.
# [2] = test system: Caco-2 monolayers; assay: TEER of Caco-2 monolayers in Transwell inserts after permeation enhancer; assay type: cell-based, Human; conditions: recovering to normal levels within 24h in fresh medium
# Experimental: TEER was measured in Transwell inserts with Millicell ERS-2 chopstick Silver/SilverChloride (Ag/AgCl) electrodes (Millipore, USA), and calculated via Eq 1 (see below). […] Sigma, Denmark), insulin (Novo Nordisk, Denmark) and tetradecyl-β-D-Maltoside (TDM; Sigma, Denmark) were all prepared using buffer^+ as the diluent. Buffer^+ was prepared by mixing Hank’s Buffered Saline solution (HBSS; Gibco, Denmark), 0.1% (wt/vol) OVA (ovalbumin; from chicken egg white, Sigma, Denmark) and 10 mM HEPES (HEPES; Sigma, Denmark) at pH 7.4. […] The gentle shaking was to ensure there was little unstirred diffusion layers of fluid in the basolateral region. […] PerkinElmer), after mixing with scintillation fluid (Microscint-40; PerkinElmer), along with a peptide and FD4 content. After the experiments, the cells were washed twice with buffer^+ and replenished with medium for 24 hour recovery. In the microfluidic system, similar to the Transwell studies, before the start of experiment, the DMEM was replaced with buffer^+. Buffer^+ was flowed into the system for 1 hr. Subsequently, the buffer was changed to the test solutions in the top fluidic layer. Flow rate was set at 3 μl/min (in both the upper and lower layers). In the collection reservoirs of the basolateral chambers, 200 μl of buffer was added to each of the collection reservoirs. […]
# [3] = test system: P-gp; assay: Rh 123 bidirectional permeability / P-gp efflux across Caco-2 monolayers in microfluidic device; assay type: in vitro ADME; conditions: human, day 10 of cell culture; for Papp at 10 μM: Caco-2, 10 μM Rh 123, microfluidic device, n = 3
# Experimental: Before carrying out the Rh 123 studies, buffer^+ was flowed to both the upper and lower channels for 1 hr. Following that Rh 123 (Sigma-Aldrich, Denmark) prepared in buffer^+ to a concentration of 10 μM was flowed to the basolateral side. 200μl of buffer^+ was added to each waste reservoirs. At each 15min interval, 150 μl was removed from the respective waste reservoirs with replacement of 150μl of buffer^+. Studies were carried out in triplicates.
# (§2) The Caco-2 translocation of peptide, [^3H]mannitol or Rh 123 over Caco-2 layers is expressed as the apparent permeability (Papp), given by: Papp=dQ/dt1/AC0 (2) Where dQ/dt is the steady-state flux across the cell layer (pmol/s), A is the surface area (1.12 cm^2 for Transwell, 0.1 cm^2 for microfluidic), and C0 is the initial sample concentration.
# For the P-gp studies, the collected samples were analyzed for Rh 123 content using a fluorescence plate reader with excitation/emission of 485/546nm, based on standard curves prepared from test solutions. The efflux ratio of P-gp was determined by: effluxratio=Papp(Basal→Apical)/Papp(Apical→Basal) (4)
# [4] = test system: Caco-2 monolayers
# Experimental: as §1, §2
structure (smiles),measurement,setting,value
"CCCCCCCCCCCCCCO[C@@H]1O[C@H](CO)[C@@H](O[C@H]2O[C@H](CO)[C@@H](O)[C@H](O)[C@H]2O)[C@H](O)[C@H]1O [TDM, tetradecyl-β-D-maltoside]","TEER in the presence of TDM, % of initial values",[1]; TDM for two hours,21%
same,"TEER recovery, % of initial values",[1]; after 24 hours of continuous perfusion with cell culture medium,90%
same,TEER change following TDM addition,[1]; recovering to normal levels within 24h in fresh medium,reversibly decreased
same,TEER change following TDM addition,[2],reversibly decreased
"COC(=O)c1ccccc1-c1c2ccc(=N)cc-2oc2cc(N)ccc12 [Rh 123, Rhodamine 123]",Papp at 10 μM,[3]; read-out: Papp(apical → basal),~1.03 ×10⁻⁶ cm/s
same,Papp at 10 μM,[3]; read-out: Papp(basal → apical),~11.2 ×10⁻⁶ cm/s
same,efflux ratio at 10 μM,"[3]; Caco-2, microfluidic device, read-out: efflux ratio Papp(Basal→Apical)/Papp(Apical→Basal)",~10.8
OC[C@@H](O)[C@@H](O)[C@H](O)[C@H](O)CO [mannitol],Papp in microfluidic chip compared to static Transwell cultures,[4],slightly higher (not significant)
